The results in this text go back to patent US8822449B2, “Substituted aminoindanes and analogs thereof, and the pharmaceutical use thereof” (Sanofi, priority 2008, dated 2014).

One test concerns the target T1, sodium-proton exchanger of subtype 3 (NHE3) (Homo sapiens, UniProt P48764).
T1 construct: expressed in transfected cells
T1 sequence (P48764 26-834): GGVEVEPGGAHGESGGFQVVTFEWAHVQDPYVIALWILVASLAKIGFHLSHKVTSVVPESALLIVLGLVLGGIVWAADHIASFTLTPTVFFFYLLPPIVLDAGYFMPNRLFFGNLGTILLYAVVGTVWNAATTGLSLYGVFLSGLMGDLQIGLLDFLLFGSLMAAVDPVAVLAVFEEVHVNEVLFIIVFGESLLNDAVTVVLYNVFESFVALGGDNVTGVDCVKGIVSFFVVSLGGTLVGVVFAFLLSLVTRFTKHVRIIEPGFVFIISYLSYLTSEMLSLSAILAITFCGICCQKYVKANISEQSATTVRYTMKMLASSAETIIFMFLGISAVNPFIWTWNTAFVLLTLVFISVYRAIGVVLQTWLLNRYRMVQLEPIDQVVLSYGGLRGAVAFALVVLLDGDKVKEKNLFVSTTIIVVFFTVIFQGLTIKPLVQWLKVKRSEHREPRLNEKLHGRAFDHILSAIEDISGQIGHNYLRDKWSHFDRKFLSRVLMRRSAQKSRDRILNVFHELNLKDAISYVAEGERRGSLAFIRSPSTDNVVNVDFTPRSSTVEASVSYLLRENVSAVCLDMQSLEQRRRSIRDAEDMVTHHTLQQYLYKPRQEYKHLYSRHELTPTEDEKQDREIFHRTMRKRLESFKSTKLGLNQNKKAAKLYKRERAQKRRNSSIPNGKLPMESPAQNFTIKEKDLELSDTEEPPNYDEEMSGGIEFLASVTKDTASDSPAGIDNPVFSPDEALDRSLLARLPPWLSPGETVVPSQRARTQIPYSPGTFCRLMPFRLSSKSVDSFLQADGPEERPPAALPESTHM
As to the kind of experiment: Recovery of intracellular pH (pHi) after acidification in LAP1 cells stably expressing NHE3 (BCECF fluorescence, FLIPR). The conditions noted are these: Activity range (inhibitory effect on NHE3), LAP1 cells stably expressing NHE3; pH recovery after acidification; range 1 is % inhibition at 10 μM. The format is cell-based.
In the case of `CC(=O)Nc1cccc(O[C@H]2c3cc(Cl)cc(Cl)c3C[C@@H]2N2C[C@H]3CC[C@@H](C2)N3)c1` [Example 664, N-[3-(trans-(1S,2S)-4,6-dichloro-2-3,8-diazabicyclo[3.2.1]oct-3-ylindan-1-yloxy)phenyl]acetamide], the IC50 is below 1000 nM.

The same test, now with this note: LAP1 cells stably expressing NHE3; pH recovery after acidification; range 1 is % inhibition at 10 μM; read-out: Activity range (inhibitory effect on NHE3).
In the case of `Cc1cc(O[C@H]2c3cc(F)cc(Cl)c3C[C@@H]2N2CCNCC2)ccc1S(C)(=O)=O` (racemic) [Example 281, 1-[rac-trans-(1,2)-4-chloro-6-fluoro-1-(4-methanesulfonyl-3-methylphenoxy)indan-2-yl]piperazine], the IC50 is below 1000 nM.

Regarding `N[C@@H]1CCCN([C@H]2CCc3ccccc3[C@@H]2Oc2ccc(NC(=O)OCc3ccccc3)cc2)C1` (racemic) [Example 237, {4-[rac-trans-(1,2)-2-((R)-3-aminopiperidin-1-yl)-1,2,3,4-tetrahydronaphthalen-1-yloxy]phenyl}carbamic acid benzyl ester], the inhibition at 10 µM lay in the range of 20 to 50%.

Regarding `CS(=O)(=O)c1ccc(O[C@H]2c3cc(Cl)cc(Cl)c3C[C@@H]2N2CCC[C@@H](NCCC(F)(F)F)C2)cc1` [Example 223, {(R)-1-[trans-(1S,2S)-4,6-dichloro-1-(4-methanesulfonylphenoxy)indan-2-yl]piperidin-3-yl}-(3,3,3-trifluoropropyl)amine], the IC50 was below 1000 nM.

Regarding `COc1ccc(C)cc1O[C@@H]1c2ccccc2C[C@H]1N1CCC(CN)CC1` (racemic) [Example 606, C-{1-[rac-trans-(1,2)-1-(2-methoxy-5-methylphenoxy)indan-2-yl]piperidin-4-yl}methylamine], the IC50 is 1000 to 10000 nM.

On to `NCCc1c[nH]c2ccc(O[C@H]3c4ccccc4CC[C@@H]3N3CCC[C@H](N)C3)cc12` (racemic) [Example 201, (S)-1-{rac-trans-(1,2)-1-[3-(2-aminoethyl)-1H-indol-5-yloxy]-1,2,3,4-tetrahydronaphthalen-2-yl}piperidin-3-ylamine], for which the IC50 lay in the range of 1000 to 10000 nM.

`Cc1cccc2c1C[C@H](N1CCCC1)[C@H]2Oc1ccc(S(N)(=O)=O)cc1` (racemic) [Example 472, 4-(rac-trans-(1,2)-4-methyl-2-pyrrolidin-1-ylindan-1-yloxy)benzenesulfonamide]: the IC50 is 1000 to 10000 nM.

On to `CCCC1(N)CCCN([C@H]2Cc3c(Cl)cc(Cl)cc3[C@@H]2Oc2ccc(S(C)(=O)=O)cc2)C1` (stereo partly drawn) [Example 300, 1-[trans-(1S,2S)-4,6-dichloro-1-(4-methanesulfonylphenoxy)indan-2-yl]-3-propylpiperidin-3-ylamine], for which the IC50 is 1000 to 10000 nM.

On to `CC(=O)Nc1cccc(O[C@H]2c3ccccc3C[C@@H]2N2CCCCC2)c1` [Example 663, N-[3-(trans-(1S,2S)-2-piperidin-1-ylindan-1-yloxy)phenyl]acetamide], for which the IC50 is below 1000 nM.

As to `Cc1cc(C)c2cccnc2c1O[C@H]1c2ccccc2CC[C@@H]1N1CCC[C@H](N)C1` (racemic) [Example 187, (S)-1-[rac-trans-(1,2)-1-(5,7-dimethylquinolin-8-yloxy)-1,2,3,4-tetrahydronaphthalen-2-yl]piperidin-3-ylamine], the inhibition at 10 µM fell in the range of 20 to 50%.

Regarding `O=C1OCCN1c1ccc(Cl)c(O[C@H]2c3cc(Cl)cc(Cl)c3C[C@@H]2N2CC[C@@H](O)C2)c1` [Example 434, 3-{4-chloro-3-[(1S,2S)-4,6-dichloro-2-((R)-3-hydroxypyrrolidin-1-yl)indan-1-yloxy]phenyl}oxazolidin-2-one], the IC50 is below 1000 nM.

For `N[C@@H]1CCCN([C@@H]2Cc3ccccc3[C@H]2Oc2ccncc2)C1` (racemic) [Example 86, (R)-1-[rac-trans-(1,2)-1-(pyridin-4-yloxy)indan-2-yl]piperidin-3-ylamine], the IC50 lay in the range of 1000 to 10000 nM.

Turning to `N[C@@H]1CCCN([C@H]2CCc3ccccc3[C@@H]2Oc2cccc3ccc(Cl)nc23)C1` (racemic) [Example 41, (R)-1-[rac-trans-(1,2)-1-(2-chloroquinolin-8-yloxy)-1,2,3,4-tetrahydronaphthalen-2-yl]piperidin-3-ylamine], the IC50 was in the range of 1000 to 10000 nM.

`Cc1ccc(F)c(O[C@H]2c3ccccc3CC[C@@H]2N2CCC[C@H](N)C2)c1` (racemic) [Example 155, (S)-1-[rac-trans-(1,2)-1-(2-fluoro-5-methylphenoxy)-1,2,3,4-tetrahydronaphthalen-2-yl]piperidin-3-ylamine]: the inhibition at 10 µM was 20 to 50%.

Turning to `NC(=O)c1ccccc1O[C@H]1c2ccccc2CC[C@@H]1N1CCC[C@@H](N)C1` (racemic) [Example 368, 2-[rac-trans-(1,2)-2-((R)-3-aminopiperidin-1-yl)-1,2,3,4-tetrahydronaphthalen-1-yloxy]benzamide], the IC50 lay in the range of 1000 to 10000 nM.

For the compound `Cn1ccn(-c2ccc(Cl)c(O[C@H]3c4cc(F)cc(F)c4C[C@@H]3N3CC[C@@H](O)C3)c2)c1=O` [Example 338, 1-{4-chloro-3-[(1S,2S)-4,6-difluoro-2-((R)-3-hydroxypyrrolidin-1-yl)indan-1-yloxy]phenyl}-3-methyl-1,3-dihydroimidazol-2-one], the IC50 is 1000 to 10000 nM.

Consider `NC(=O)c1ccccc1O[C@H]1c2ccccc2CC[C@@H]1N1CCC[C@H](N)C1` (racemic) [Example 373, 2-[rac-trans-(1,2)-2-((S)-3-aminopiperidin-1-yl)-1,2,3,4-tetrahydronaphthalen-1-yloxy]benzamide], for which the IC50 was below 1000 nM.

As for `O=C1CNC(=O)N1c1ccc(Cl)c(O[C@H]2c3cc(Cl)cc(F)c3C[C@@H]2N2CC[C@@H](O)C2)c1` [Example 438, 3-{4-chloro-3-[(1S,2S)-6-chloro-4-fluoro-2-((R)-3-hydroxypyrrolidin-1-yl)indan-1-yloxy]phenyl}imidazolidine-2,4-dione], the IC50 is 1000 to 10000 nM.

With `Cc1cn(-c2ccc(O[C@H]3c4cc(Cl)cc(F)c4C[C@@H]3N3CC[C@@H](O)C3)cc2)c(C(C)C)n1` [Example 720, (R)-1-{trans-(1S,2S)-6-Chloro-4-fluoro-1-[4-(2-isopropyl-4-methyl-imidazol-1-yl)-phenoxy]-indan-2-yl}-pyrrolidin-3-ol], the IC50 was 1000 to 10000 nM.

In the case of `Cc1cc(F)ccc1O[C@@H]1c2ccccc2C[C@H]1N1C[C@H]2CNC[C@H]2C1` (racemic) [Example 16, 2-[rac-trans-(1,2)-1-(4-fluoro-2-methylphenoxy)indan-2-yl]octahydropyrrolo[3,4-c]pyrrole], the IC50 lay in the range of 1000 to 10000 nM.

Turning to `NC1CCN([C@@H]2Cc3ccccc3[C@H]2Oc2ccc(Br)cc2-c2cc[nH]n2)CC1` (racemic) [Example 343, 1-{rac-trans-(1,2)-1-[4-bromo-2-(1H-pyrazol-3-yl)phenoxy]indan-2-yl}piperidin-4-ylamine], the IC50 fell in the range of 1000 to 10000 nM.

For `CS(=O)(=O)c1ccc(O[C@H]2c3ccccc3CC[C@@H]2N2CCC[C@H](N)C2)cc1` (racemic) [Example 182, (S)-1-[rac-trans-(1,2)-1-(4-methanesulfonylphenoxy)-1,2,3,4-tetrahydronaphthalen-2-yl]piperidin-3-ylamine], the IC50 was in the range of 1000 to 10000 nM.

As to `CS(=O)(=O)c1ccc(O[C@H]2c3cc(Cl)cc(Cl)c3C[C@@H]2N2CCC[C@@H](N)C2)cc1` [Example 102, (R)-1-[trans-(1S,2S)-4,6-dichloro-1-(4-methanesulfonylphenoxy)indan-2-yl]piperidin-3-ylamine], the IC50 was below 1000 nM.

Turning to `Cc1cc(O[C@@H]2c3ccccc3C[C@H]2N2C[C@H]3CNC[C@H]3C2)cc(C)c1C#N` (racemic) [Example 505, 4-[rac-trans-(1,2)-2-(Hexahydropyrrolo[3,4-c]pyrrol-2-yl)indan-1-yloxy]-2,6-dimethylbenzonitrile], the IC50 lay within 1000 to 10000 nM.

Consider `Cc1nnc(C)n1-c1ccc(O[C@H]2c3ccccc3C[C@@H]2N2CCCC2)c(Cl)c1` (racemic) [Example 490, 4-[3-chloro-4-(rac-trans-(1,2)-2-pyrrolidin-1-ylindan-1-yloxy)phenyl]-3,5-dimethyl-4H-[1,2,4]triazole], for which the IC50 was below 1000 nM.

With `Cc1ccc(O[C@H]2c3ccccc3CC[C@@H]2N2CCC[C@H](N)C2)c(Br)c1` (racemic) [Example 150, (S)-1-[rac-trans-(1,2)-1-(2-bromo-4-methylphenoxy)-1,2,3,4-tetrahydronaphthalen-2-yl]piperidin-3-ylamine], the inhibition at 10 µM was in the range of 20 to 50%.

Regarding `C[C@]1(O)CCN([C@H]2Cc3c(Cl)cc(Cl)cc3[C@@H]2Oc2ccc(S(C)(=O)=O)cc2)C1` (racemic) [Example 146, (S)-1-[(1S,2S)-4,6-dichloro-1-(4-methanesulfonylphenoxy)indan-2-yl]-3-methylpyrrolidin-3-ol], the IC50 lay within 1000 to 10000 nM.

Regarding `Cc1nnc(C)n1-c1ccc(O[C@H]2c3cc(Cl)cc(Cl)c3C[C@@H]2N2CC[C@H](O)C2)c(F)c1` [Example 200, (S)-1-{(1S,2S)-4,6-dichloro-1-[4-(3,5-dimethyl-[1,2,4]triazol-4-yl)-2-fluorophenoxy]indan-2-yl}pyrrolidin-3-ol], the IC50 is below 1000 nM.
